Literature values, collected in patent publication US20040241252A1, “Pharmaceutical compositions for oral administration comprising lithium carbonate, processes of making the same, and methods of administering the same” (priority 2003, published 2004).

Row | time to complete absorption (oral, gastrointestinal tract) | fraction of a single dose eliminated in the urine (single dose) | SMILES | mean absorption half-time (single liquefied dose, volunteers) [h]
1 | about 8 hours | Ninety-five | [Li+] [Li^+, lithium ion] | –
2 | – | – | [Cl-].[Li+] [lithium chloride] | 0.15
